Results reported in ChEMBL document CHEMBL1777796, “Synthesis and evaluation of carbaborane derivatives of indomethacin as cyclooxygenase inhibitors” (Bioorg Med Chem, 2011).

Experiments:
[1] = biological target: T1, Prostaglandin G/H synthase 1 (Ovis aries, UniProt P05979); experiment: Inhibition of ovine COX1 assessed as conversion of [14C]-arachidonic acid to [14C]-prostaglandins preincubated for 17 mins by thin-layer chromatography analysis
T1 sequence (P05979 whole entry): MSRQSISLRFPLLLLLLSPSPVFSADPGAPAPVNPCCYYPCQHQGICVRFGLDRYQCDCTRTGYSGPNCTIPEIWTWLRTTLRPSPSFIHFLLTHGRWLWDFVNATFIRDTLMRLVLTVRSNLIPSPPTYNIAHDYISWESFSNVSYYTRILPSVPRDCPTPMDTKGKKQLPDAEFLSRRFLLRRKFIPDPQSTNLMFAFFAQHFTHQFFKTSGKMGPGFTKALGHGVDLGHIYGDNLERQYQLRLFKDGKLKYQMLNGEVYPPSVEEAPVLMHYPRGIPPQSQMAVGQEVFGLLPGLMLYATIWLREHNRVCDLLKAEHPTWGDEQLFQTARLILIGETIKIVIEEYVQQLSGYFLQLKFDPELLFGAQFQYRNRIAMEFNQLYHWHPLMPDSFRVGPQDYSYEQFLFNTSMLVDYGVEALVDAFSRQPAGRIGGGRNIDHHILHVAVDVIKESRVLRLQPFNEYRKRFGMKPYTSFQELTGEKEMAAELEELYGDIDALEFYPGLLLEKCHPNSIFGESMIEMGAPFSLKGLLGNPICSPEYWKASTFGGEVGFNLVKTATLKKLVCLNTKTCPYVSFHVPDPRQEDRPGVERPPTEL

[2] = biological target: T2, Prostaglandin G/H synthase 2 (Mus musculus, UniProt Q05769); experiment: Inhibition of mouse COX2 assessed as conversion of [14C]-arachidonic acid to [14C]-prostaglandins preincubated for 17 mins by thin-layer chromatography analysis
T2 sequence (Q05769 whole entry): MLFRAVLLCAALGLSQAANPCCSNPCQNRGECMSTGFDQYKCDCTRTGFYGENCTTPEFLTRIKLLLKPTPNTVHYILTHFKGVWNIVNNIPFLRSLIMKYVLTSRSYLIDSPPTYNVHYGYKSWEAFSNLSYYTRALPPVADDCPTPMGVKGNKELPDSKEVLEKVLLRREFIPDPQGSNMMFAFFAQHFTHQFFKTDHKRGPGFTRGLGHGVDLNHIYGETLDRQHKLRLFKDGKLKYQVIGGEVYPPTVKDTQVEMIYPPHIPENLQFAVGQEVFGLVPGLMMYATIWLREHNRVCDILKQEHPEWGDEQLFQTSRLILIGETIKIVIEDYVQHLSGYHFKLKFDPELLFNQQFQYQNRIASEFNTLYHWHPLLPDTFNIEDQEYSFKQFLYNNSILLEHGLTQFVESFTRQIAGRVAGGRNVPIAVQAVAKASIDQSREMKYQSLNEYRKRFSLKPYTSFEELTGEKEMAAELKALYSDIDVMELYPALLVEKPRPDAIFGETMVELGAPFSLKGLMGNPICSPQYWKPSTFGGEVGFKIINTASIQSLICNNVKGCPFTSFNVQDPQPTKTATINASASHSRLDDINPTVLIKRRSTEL

- IC50 [1]: > 25 µM
- IC50 [2]: > 25 µM
SMILES: COc1ccc2c(c1)c(CC(=O)OC13CC4CC(CC(C4)C1)C3)c(C)n2C(=O)c1ccc(Cl)cc1
